{"source": "patent US20240100019A1", "about": "“COMPOSITIONS COMPRISING A THERMOREVERSIBLE HYDROGEL, AND HAVING AN EXTENDED IN-USE PERIOD” (UroGen Pharma Ltd., priority 2022, published 2024)", "origin": "cited, not measured here", "key": {"[1]": {"conditions": "room temperature; pH 4.5, 5.5, 6.0 and 7.0 solutions"}}, "note": "Where two headings read alike, the source gives them in different places."}
{"smiles": "CO[C@@]12[C@H](COC(N)=O)C3=C(C(=O)C(C)=C(N)C3=O)N1C[C@@H]1N[C@@H]12", "note": "[mitomycin C]", "values": [{"measurement": "time for which MMC was stable (relative concentrations systematically over 90% of the initial concentrations)", "setting": "0.2 mg/ml in 0.9% sodium chloride solution", "result": 10, "unit": "h"}, {"measurement": "relative MMC concentration as compared to initial concentration", "setting": "after 96 h, these solutions", "result": "below 80%"}, {"measurement": "time for which MMC was stable (relative concentrations systematically over 90% of the initial concentrations)", "setting": "in water for injections at a concentration of 1 mg/mL", "result": 8, "unit": "h"}, {"measurement": "degradation products observed", "setting": "reconstituted and diluted solutions", "result": "below 3%"}, {"measurement": "time at which MMC was unstable (less than 90% of the initial value)", "setting": "[1]", "result": "< 24", "unit": "h"}]}
